Tests used:
[1] = test system: anti-topiramate antibodies prepared with immunogen (18); assay: ELISA binding inhibition study (avidity), free topiramate vs coated antigens; parameters: species or system Rabbit; settings: for Abs Antigen 16 / Abs Antigen 19 / Abs Antigen 20: 405 nm
Experimental: ELISA plates for use in an ELISA assay are prepared in order to study the polyclonal antibody prepared as described in Example 21. As such, various topiramate antigens (16), (19), and (20) are coated on different ELISA plates before being subjected to the anti-topiramate antibody and competing free topiramate. More particularly, the topiramate antigens are diluted in coating buffer, and then added to the wells of ELISA plate. After the ELISA plate is inculcated for 60 min at 37° C., the solvent in the coating buffer is decanted and a blocking buffer is added to the plate. The plate is incubated again for 60 min at 37° C., and the solvent in the blocking buffer is decanted from the plate. The ELISA plate is then stored with the blocking agent in the wells at 2-8° C. for up to 1 week. The avidity of the anti-topiramate antibodies prepared with immunogen (17) for topirainate analogs are determined by a binding inhibition study. As such, samples are prepared in 1 mL of PBS at pH 7.4 with 0.1% BSA. A composition having 30% Bmax titer or 50% Bmax titer is used to divide the obtained titer value into approximately half the titer value. Using 30% Bmax, an antibody titer of 1:10000 is diluted to 1:5000 during the sample preparation stage. About 50 μL of topiramate at different concentrations or calibrator values, (0, 2, 4, 8, 16, 32 μg/ml) are then applied to a plate as prepared in accordance with Example 22. About 50 μL of the diluted antibody is dispensed into the plate, and the compositions in the plate are mixed for 1 min on a horizontal plate shaker. The plate is characterized by a first row not containing topiramate or anti-topiramate antibody, wherein the first row is used as a negative control. A second row not containing topiramate is used as the positive control. The plate is incubated for 60 min, and washed three times with 250 μL of PBS at pH 7.4 with 0.05% tween. About 125 μL of a diluted second antibody conjugate such as antigens (16), (19), or (20), in PBS at pH 7.4 is added to each well of the plate. Titer is determined experimentally by the plate being incubated for 60 min at 37° C. and washed 3 times with 250 μL PBS, pH 7.4 with 0.05% tween. Subsequently, about 125 μL of ABTS substrate is added to each well of the plate and incubated for 20 min. The avidity of the anti-topiramate antibodies prepared with immunogen (18) for topiramate analogs is determined by a binding inhibition study performed with an experimental protocol substantially similar as in Example 24.

[2] = cited from earlier work
[3] = Rabbit No. 5490, topiramate 2 μg/ml
[4] = Rabbit No. 5490, topiramate 4 μg/ml
[5] = Rabbit No. 5490, topiramate 8 μg/ml
[6] = Rabbit No. 5490, topiramate 16 μg/ml
[7] = Rabbit No. 5490, topiramate 32 μg/ml
[8] = Rabbit No. 5495, topiramate 2 μg/ml
[9] = Rabbit No. 5495, topiramate 4 μg/ml
[10] = Rabbit No. 5495, topiramate 8 μg/ml
[11] = Rabbit No. 5495, topiramate 16 μg/ml
[12] = Rabbit No. 5495, topiramate 32 μg/ml
[13] = dose escalation add-on studies, morning trough serum

CC1(C)O[C@@H]2[C@@H](CO[C@@]3(COS(N)(=O)=O)OC(C)(C)O[C@@H]23)O1 [Topiramate, 2,3:4,5-di-O-isopropylidene-beta-D-fructopyranose sulfamate]
B/Bo Antigen 16 [1, 3]: 0.35
B/Bo Antigen 19 [1, 3]: 0.18
B/Bo Antigen 20 [1, 3]: 0.63
Abs Antigen 16 [1, 3]: 0.25
Abs Antigen 19 [1, 3]: 0.10
Abs Antigen 20 [1, 3]: 0.25
B/Bo Antigen 16 [1, 4]: 0.28
B/Bo Antigen 19 [1, 4]: 0.10
B/Bo Antigen 20 [1, 4]: 0.60
Abs Antigen 16 [1, 4]: 0.20
Abs Antigen 19 [1, 4]: 0.06
Abs Antigen 20 [1, 4]: 0.24
B/Bo Antigen 16 [1, 5]: 0.21
B/Bo Antigen 19 [1, 5]: 0.07
B/Bo Antigen 20 [1, 5]: 0.55
Abs Antigen 16 [1, 5]: 0.15
Abs Antigen 19 [1, 5]: 0.04
Abs Antigen 20 [1, 5]: 0.22
B/Bo Antigen 16 [1, 6]: 0.17
B/Bo Antigen 19 [1, 6]: 0.06
B/Bo Antigen 20 [1, 6]: 0.53
Abs Antigen 16 [1, 6]: 0.12
Abs Antigen 19 [1, 6]: 0.03
Abs Antigen 20 [1, 6]: 0.21
B/Bo Antigen 16 [1, 7]: 0.14
B/Bo Antigen 19 [1, 7]: 0.04
B/Bo Antigen 20 [1, 7]: 0.50
Abs Antigen 16 [1, 7]: 0.10
Abs Antigen 19 [1, 7]: 0.02
Abs Antigen 20 [1, 7]: 0.20
B/Bo Antigen 16 [1, 8]: 0.35
B/Bo Antigen 19 [1, 8]: 0.20
B/Bo Antigen 20 [1, 8]: 0.53
Abs Antigen 16 [1, 8]: 0.25
Abs Antigen 19 [1, 8]: 0.13
Abs Antigen 20 [1, 8]: 0.18
B/Bo Antigen 16 [1, 9]: 0.39
B/Bo Antigen 19 [1, 9]: 0.12
B/Bo Antigen 20 [1, 9]: 0.50
Abs Antigen 16 [1, 9]: 0.28
Abs Antigen 19 [1, 9]: 0.08
Abs Antigen 20 [1, 9]: 0.17
B/Bo Antigen 16 [1, 10]: 0.21
B/Bo Antigen 19 [1, 10]: 0.08
B/Bo Antigen 20 [1, 10]: 0.47
Abs Antigen 16 [1, 10]: 0.15
Abs Antigen 19 [1, 10]: 0.05
Abs Antigen 20 [1, 10]: 0.16
B/Bo Antigen 16 [1, 11]: 0.17
B/Bo Antigen 19 [1, 11]: 0.06
B/Bo Antigen 20 [1, 11]: 0.41
Abs Antigen 16 [1, 11]: 0.12
Abs Antigen 19 [1, 11]: 0.04
Abs Antigen 20 [1, 11]: 0.14
B/Bo Antigen 16 [1, 12]: 0.14
B/Bo Antigen 19 [1, 12]: 0.03
B/Bo Antigen 20 [1, 12]: 0.32
Abs Antigen 16 [1, 12]: 0.10
Abs Antigen 19 [1, 12]: 0.02
Abs Antigen 20 [1, 12]: 0.11
serum concentration at which a reduction in seizure control was seen [2, 13]: greater than 75 μmol/L
serum concentration with significant increase in side effects [2, 13]: > 60 µM
systemic topiramate concentrations ([2]; patients receiving higher doses, up to 2000 mg): ≤ 80 µmol/L

From patent US20060088886A1, “Topiramate analogs” (priority 2004, published 2006)
